Results as given in ChEMBL document CHEMBL1201862, “PubChem BioAssay data set” (2004).
The source made the active and inactive calls.

How the values were obtained:
Type in all cases: functional
[1] = target: Glycogen synthase kinase-3 beta (Homo sapiens, UniProt P49841); assay: GSK3beta kinase inhibitors, dose response, biochemical, microfluidics, dry powder samples, set 2 (AID 623989)
Caspase-3 [2] = target: T1, Caspase-3 (Homo sapiens, UniProt P42574); assay: SAR Analysis of small molecule inhibitors of Sentrin-specific proteases (SENPs) using a Caspase-3 Selectivity assay. [Related pubchem assays (depositor defined):AID2540, AID2599, AID434973, AID489001]
T1 sequence (P42574 whole entry): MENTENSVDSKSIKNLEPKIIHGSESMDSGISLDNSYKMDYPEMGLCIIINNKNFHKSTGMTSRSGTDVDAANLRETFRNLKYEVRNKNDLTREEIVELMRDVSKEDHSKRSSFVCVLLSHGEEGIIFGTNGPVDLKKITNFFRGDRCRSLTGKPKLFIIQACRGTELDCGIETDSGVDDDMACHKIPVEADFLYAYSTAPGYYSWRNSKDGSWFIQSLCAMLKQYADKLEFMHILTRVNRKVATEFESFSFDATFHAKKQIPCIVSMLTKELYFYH

[3] = target: T2, Sentrin-specific protease 6 (Homo sapiens, UniProt Q9GZR1); assay: SAR Analysis of small molecule inhibitors of Sentrin-specific protease 6 (SENP6) using a Luminescent assay. [Related pubchem assays (depositor defined):AID2582, AID2599]
T2 sequence (Q9GZR1 whole entry): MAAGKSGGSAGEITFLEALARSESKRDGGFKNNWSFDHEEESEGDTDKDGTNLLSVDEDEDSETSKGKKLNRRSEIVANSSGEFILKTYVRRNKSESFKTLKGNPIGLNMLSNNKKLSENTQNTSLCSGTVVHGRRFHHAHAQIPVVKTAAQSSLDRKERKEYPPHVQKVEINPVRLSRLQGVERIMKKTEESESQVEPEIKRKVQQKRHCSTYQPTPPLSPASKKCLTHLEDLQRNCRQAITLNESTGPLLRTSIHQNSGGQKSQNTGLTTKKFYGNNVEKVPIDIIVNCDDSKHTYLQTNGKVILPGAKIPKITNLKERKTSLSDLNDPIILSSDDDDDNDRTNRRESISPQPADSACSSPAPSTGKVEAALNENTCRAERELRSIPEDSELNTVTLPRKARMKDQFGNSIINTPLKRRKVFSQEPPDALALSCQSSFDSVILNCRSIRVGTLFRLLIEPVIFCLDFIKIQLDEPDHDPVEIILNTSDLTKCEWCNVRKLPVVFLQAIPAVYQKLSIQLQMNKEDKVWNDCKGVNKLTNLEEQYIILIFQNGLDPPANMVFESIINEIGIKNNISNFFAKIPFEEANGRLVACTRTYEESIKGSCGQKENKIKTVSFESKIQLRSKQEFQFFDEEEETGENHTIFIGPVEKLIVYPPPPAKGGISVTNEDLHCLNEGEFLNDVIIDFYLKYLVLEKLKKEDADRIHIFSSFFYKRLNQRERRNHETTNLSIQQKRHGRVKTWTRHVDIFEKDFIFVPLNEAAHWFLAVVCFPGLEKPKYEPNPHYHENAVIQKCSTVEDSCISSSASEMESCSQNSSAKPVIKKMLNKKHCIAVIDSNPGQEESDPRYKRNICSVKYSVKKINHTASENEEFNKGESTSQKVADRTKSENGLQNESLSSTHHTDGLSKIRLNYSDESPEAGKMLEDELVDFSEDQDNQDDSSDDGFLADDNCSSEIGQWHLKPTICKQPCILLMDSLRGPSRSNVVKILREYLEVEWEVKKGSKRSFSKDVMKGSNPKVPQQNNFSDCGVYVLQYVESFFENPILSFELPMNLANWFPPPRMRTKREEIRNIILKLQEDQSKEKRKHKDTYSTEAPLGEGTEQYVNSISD

[4] = target: T2, Sentrin-specific protease 6; assay: SENP6 protease inhibitors, SAR follow-up, biochemical, luminescence, set 2 (AID 588598)
[5] = target: T3, Sentrin-specific protease 7 (Homo sapiens, UniProt Q9BQF6); assay: SENP7 protease inhibitors, SAR follow-up, biochemical, luminescence, set 2 (AID 588600)
T3 sequence (Q9BQF6 whole entry): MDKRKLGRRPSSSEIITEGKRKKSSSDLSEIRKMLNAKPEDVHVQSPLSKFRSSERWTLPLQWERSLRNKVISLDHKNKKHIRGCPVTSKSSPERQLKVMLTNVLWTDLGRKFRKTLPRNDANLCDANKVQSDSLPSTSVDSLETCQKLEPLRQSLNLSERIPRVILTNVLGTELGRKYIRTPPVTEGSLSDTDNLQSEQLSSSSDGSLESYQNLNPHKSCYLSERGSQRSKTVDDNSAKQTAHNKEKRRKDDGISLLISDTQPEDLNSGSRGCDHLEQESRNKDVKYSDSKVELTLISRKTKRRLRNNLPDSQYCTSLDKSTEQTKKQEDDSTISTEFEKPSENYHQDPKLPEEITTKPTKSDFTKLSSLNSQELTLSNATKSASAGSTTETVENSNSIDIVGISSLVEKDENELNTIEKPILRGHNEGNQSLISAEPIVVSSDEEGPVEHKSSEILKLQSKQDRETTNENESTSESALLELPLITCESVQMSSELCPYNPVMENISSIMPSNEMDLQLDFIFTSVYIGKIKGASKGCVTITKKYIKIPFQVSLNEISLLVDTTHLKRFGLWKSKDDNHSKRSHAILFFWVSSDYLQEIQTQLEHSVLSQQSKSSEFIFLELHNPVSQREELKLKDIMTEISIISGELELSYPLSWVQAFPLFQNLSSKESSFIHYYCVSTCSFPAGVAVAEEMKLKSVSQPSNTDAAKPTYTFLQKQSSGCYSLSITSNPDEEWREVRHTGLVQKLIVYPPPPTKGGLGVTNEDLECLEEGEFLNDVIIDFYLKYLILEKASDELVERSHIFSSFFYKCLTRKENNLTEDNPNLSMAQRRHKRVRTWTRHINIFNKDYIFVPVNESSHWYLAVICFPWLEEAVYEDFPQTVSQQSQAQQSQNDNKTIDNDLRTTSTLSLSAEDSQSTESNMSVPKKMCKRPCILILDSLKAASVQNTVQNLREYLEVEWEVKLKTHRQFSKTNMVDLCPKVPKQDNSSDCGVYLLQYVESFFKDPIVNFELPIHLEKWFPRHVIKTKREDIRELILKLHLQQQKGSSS

Caspase-3 [6] = target: T1, Caspase-3; assay: caspase-3 inhibitors as off-family protease, SAR follow-up, selectivity assay for SENP protease inhibitor project, biochemical, luminescence, set 2 (AID 588599)
[7] = target: T4, Sentrin-specific protease 8 (Homo sapiens, UniProt Q96LD8); assay: SENP8 protease inhibitors, SAR follow-up, biochemical, luminescence (AID 504501)
T4 sequence (Q96LD8 whole entry): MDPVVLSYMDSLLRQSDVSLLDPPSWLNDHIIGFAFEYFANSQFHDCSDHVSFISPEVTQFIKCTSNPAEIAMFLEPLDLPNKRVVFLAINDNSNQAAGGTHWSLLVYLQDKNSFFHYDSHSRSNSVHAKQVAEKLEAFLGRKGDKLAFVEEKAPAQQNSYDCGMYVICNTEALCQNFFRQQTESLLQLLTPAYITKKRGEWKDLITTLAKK

[8] = target: T3, Sentrin-specific protease 7; assay: SENP7 protease inhibitors, SAR follow-up, biochemical, luminescence (AID 504497)
[9] = target: T4, Sentrin-specific protease 8; assay: SENP8 protease inhibitors, SAR follow-up, biochemical, luminescence, set 2 (AID 588601)
[10] = THP-1 cell cytotoxicity, dose response, cytotoxicity control, set 3 (AID 504852); conditions: Mycobacterium tuberculosis
[11] = THP-1 cell cytotoxicity, cytotoxicity control, set 4 (AID 504911); conditions: Mycobacterium tuberculosis
[12] = Vero cell cytotoxicity, dose response, cytotoxicity control for M. tuberculosis growth inhibitor project, Vero cells, purified and synthesized compounds, set 5 (AID 504909); conditions: Mycobacterium tuberculosis
[13] = Vero cell cytotoxicity, dose response, cytotoxicity control for M. tuberculosis growth inhibitor project, Vero cells, purified and synthesized compounds, set 4 (AID 504854); conditions: Mycobacterium tuberculosis
[14] = target: DNA dC->dU-editing enzyme APOBEC-3G (Homo sapiens, UniProt Q9HC16); assay: APOBEC3G deaminase inhibitors, SAR follow-up, biochemical, fluorescence, single-stranded DNA substrate (AID 602136); conditions: read-out: IC50_Mean
[15] = target: DNA dC->dU-editing enzyme APOBEC-3A (Homo sapiens, UniProt P31941); assay: SAR analysis of small molecule inhibitors of APOBEC3A DNA Deaminase via a fluorescence-based single-stranded DNA deaminase assay.; conditions: read-out: IC50_Mean
[16] = target: Tyrosine-protein kinase ABL1 (Homo sapiens, UniProt P00519)
[17] = target: Macrophage colony-stimulating factor 1 receptor (Homo sapiens, UniProt P07333);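 also: value comes from the Navigating the Kinome screening panel, CSF1R member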
[18] = target: Mast/stem cell growth factor receptor Kit (Homo sapiens, UniProt P10721);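 also: KIT entry within a kinase panel assay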
[19] = target: Tyrosine-protein kinase Blk (Homo sapiens, UniProt P51451);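 also: obtained as one member of a kinome-wide kinase assay panel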
[20] = target: Neuropeptides B/W receptor type 1 (Homo sapiens, UniProt P48145); assay: GPR7 antagonist potency, late-stage follow-up, cell-based, fluorescence, dose response, set 6 (AID 588583)
[21] = target: Melanin-concentrating hormone receptor 1 (Homo sapiens, UniProt Q99705); assay: Late-stage fluorescence-based counterscreen for antagonists of the G-protein coupled receptor 7 (GPR7): cell-based dose response assay to identify antagonists of the melanin-concentrating hormone receptor 1 (MCHR1) Set 6.
[22] = target: T5, Short transient receptor potential channel 4 (Mus musculus, UniProt Q9QUQ5); assay: mouse TRPC4 channel inhibitors, dose response, cell-based, HEK293 TRPC4/mu-opioid, Fluo-4 calcium (AID 434942);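 also: potency of inhibitors blocking the TRPC4 calcium response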
T5 sequence (Q9QUQ5 whole entry): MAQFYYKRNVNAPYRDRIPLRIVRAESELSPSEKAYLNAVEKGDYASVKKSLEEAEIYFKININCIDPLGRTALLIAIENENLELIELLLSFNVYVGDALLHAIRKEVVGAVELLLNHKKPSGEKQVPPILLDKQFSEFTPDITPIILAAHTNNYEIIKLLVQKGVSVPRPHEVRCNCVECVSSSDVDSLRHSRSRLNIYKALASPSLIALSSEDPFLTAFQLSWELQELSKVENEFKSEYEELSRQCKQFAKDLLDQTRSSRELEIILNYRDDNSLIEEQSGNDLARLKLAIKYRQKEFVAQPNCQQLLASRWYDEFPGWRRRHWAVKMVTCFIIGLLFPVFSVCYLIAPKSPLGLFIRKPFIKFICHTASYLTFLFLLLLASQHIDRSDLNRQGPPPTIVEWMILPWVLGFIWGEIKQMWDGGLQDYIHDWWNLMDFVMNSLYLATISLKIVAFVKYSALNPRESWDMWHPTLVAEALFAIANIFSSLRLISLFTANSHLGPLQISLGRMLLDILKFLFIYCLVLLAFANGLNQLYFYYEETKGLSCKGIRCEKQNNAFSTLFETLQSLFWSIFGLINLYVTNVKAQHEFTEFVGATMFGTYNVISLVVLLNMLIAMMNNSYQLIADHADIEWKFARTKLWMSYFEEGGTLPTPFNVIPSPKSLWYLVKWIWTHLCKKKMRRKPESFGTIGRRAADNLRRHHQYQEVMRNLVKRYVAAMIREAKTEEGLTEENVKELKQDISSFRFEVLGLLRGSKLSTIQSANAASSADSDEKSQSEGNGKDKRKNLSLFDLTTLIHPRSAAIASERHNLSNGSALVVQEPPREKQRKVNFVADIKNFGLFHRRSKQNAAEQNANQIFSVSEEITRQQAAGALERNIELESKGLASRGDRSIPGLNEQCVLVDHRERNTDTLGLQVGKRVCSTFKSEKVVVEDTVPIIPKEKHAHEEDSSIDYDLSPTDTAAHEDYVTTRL

[23] = target: Protein disulfide-isomerase (Homo sapiens, UniProt P07237); assay: PDI inhibitors, insulin aggregation turbidity, dose response, biochemical, absorbance, cherry-picked samples (AID 602350)
Chain of Protein disulfide-isomerase (P07237 whole entry): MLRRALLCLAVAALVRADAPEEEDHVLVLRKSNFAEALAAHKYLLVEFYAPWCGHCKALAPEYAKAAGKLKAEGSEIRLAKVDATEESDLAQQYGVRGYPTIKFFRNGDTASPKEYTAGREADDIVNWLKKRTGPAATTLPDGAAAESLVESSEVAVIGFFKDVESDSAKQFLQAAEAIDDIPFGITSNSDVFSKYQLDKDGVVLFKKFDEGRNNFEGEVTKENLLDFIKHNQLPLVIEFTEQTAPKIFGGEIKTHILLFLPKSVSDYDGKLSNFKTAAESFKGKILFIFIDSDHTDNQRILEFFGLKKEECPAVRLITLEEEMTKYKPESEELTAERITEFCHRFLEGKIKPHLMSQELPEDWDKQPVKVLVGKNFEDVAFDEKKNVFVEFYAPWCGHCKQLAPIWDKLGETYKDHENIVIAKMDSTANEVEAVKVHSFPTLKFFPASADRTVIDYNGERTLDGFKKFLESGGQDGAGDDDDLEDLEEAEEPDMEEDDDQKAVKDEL

Chain of DNA dC->dU-editing enzyme APOBEC-3A (P31941 whole entry): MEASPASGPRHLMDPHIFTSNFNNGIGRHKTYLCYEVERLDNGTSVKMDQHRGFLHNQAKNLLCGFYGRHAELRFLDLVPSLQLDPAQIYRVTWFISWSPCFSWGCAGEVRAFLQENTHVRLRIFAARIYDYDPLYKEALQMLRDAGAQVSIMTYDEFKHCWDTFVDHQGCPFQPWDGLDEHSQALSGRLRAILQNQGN
Chain of Glycogen synthase kinase-3 beta (P49841 whole entry): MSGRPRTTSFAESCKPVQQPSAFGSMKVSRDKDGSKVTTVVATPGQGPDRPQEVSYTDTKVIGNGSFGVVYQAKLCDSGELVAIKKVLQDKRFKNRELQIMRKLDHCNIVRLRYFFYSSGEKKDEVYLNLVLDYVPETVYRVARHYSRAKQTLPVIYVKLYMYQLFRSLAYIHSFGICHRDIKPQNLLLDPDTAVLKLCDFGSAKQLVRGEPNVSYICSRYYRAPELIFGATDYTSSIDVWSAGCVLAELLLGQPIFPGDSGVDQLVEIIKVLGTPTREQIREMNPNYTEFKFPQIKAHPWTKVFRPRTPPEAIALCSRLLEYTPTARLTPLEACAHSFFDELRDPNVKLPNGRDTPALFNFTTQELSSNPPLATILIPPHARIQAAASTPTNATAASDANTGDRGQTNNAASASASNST
Chain of Macrophage colony-stimulating factor 1 receptor (P07333 whole entry): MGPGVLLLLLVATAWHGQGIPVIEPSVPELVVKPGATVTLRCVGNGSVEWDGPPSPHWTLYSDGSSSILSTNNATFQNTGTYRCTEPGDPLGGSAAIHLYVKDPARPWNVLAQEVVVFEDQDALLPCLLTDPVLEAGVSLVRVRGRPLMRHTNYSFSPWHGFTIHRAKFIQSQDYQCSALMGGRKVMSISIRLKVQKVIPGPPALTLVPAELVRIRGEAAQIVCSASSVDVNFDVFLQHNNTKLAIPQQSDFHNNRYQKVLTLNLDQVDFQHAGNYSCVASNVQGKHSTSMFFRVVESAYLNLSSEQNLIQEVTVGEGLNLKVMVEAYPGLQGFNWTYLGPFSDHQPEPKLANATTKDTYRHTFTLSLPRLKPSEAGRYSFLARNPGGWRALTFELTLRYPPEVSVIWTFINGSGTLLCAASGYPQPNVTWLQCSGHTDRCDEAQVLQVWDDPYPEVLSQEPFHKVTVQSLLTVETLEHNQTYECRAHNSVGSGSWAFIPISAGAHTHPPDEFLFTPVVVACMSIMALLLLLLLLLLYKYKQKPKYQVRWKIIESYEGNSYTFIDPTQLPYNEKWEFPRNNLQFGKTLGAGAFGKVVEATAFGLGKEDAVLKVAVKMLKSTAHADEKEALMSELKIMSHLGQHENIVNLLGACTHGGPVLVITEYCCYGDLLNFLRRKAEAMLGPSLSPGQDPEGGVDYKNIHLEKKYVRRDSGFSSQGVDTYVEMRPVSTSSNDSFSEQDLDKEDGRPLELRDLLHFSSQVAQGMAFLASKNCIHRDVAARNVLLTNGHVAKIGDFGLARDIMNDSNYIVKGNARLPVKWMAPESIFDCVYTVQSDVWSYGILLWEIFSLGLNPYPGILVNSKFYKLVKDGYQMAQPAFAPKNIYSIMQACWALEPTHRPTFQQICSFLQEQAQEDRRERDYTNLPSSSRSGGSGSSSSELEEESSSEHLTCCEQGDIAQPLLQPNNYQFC
Chain of Melanin-concentrating hormone receptor 1 (Q99705 whole entry): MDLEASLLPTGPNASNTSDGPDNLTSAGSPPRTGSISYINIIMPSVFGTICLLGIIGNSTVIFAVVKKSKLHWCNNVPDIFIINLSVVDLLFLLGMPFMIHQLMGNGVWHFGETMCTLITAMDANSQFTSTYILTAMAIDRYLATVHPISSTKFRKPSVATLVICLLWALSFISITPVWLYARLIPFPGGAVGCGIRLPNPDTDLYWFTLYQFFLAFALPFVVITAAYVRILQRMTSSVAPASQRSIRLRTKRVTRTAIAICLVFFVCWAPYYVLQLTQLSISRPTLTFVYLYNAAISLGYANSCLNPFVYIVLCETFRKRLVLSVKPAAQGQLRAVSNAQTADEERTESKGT
Chain of DNA dC->dU-editing enzyme APOBEC-3G (Q9HC16 whole entry): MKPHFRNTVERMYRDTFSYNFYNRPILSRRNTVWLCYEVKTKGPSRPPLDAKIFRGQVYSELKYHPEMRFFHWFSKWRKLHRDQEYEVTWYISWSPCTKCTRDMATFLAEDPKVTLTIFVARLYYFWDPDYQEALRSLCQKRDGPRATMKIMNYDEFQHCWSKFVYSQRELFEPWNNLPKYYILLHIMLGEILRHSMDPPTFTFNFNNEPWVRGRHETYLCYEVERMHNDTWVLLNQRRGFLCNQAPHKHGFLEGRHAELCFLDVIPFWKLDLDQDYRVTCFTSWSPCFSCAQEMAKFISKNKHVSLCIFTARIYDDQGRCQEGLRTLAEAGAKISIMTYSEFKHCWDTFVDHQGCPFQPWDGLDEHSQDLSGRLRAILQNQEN
Chain of Neuropeptides B/W receptor type 1 (P48145 whole entry): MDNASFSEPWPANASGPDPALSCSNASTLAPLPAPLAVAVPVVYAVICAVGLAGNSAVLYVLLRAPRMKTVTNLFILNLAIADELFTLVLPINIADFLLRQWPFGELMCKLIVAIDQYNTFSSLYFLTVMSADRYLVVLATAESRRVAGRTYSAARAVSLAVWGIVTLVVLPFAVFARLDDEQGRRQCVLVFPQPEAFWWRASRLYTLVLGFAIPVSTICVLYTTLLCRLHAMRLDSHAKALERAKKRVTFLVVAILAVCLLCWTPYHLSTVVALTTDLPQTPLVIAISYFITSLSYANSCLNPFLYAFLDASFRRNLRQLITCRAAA
Chain of Mast/stem cell growth factor receptor Kit (P10721 whole entry): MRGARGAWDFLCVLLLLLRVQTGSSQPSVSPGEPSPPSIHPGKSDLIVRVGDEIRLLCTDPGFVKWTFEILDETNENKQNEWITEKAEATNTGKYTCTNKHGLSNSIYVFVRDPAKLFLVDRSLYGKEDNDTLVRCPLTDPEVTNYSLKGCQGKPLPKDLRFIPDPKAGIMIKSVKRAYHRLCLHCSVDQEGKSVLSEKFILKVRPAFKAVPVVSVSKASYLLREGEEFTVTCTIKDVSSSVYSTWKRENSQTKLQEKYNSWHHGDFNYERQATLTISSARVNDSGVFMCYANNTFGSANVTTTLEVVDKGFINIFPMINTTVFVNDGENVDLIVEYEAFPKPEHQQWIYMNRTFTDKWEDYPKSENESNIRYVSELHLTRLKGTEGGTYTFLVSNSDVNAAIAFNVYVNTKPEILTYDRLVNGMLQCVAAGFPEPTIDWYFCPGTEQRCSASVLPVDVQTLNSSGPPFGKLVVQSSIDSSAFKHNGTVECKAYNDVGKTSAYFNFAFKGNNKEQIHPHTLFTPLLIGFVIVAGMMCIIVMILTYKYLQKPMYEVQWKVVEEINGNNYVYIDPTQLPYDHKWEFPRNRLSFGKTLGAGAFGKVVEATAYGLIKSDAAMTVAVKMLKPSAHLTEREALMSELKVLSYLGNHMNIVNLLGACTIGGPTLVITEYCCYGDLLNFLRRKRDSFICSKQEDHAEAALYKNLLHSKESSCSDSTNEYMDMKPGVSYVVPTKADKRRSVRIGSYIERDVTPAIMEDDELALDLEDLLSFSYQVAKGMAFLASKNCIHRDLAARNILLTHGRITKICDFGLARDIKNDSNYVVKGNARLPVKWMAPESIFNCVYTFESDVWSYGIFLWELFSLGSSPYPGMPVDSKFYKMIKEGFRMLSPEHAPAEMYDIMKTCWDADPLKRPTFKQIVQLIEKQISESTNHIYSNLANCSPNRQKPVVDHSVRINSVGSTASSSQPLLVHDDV
Chain of Tyrosine-protein kinase Blk (P51451 whole entry): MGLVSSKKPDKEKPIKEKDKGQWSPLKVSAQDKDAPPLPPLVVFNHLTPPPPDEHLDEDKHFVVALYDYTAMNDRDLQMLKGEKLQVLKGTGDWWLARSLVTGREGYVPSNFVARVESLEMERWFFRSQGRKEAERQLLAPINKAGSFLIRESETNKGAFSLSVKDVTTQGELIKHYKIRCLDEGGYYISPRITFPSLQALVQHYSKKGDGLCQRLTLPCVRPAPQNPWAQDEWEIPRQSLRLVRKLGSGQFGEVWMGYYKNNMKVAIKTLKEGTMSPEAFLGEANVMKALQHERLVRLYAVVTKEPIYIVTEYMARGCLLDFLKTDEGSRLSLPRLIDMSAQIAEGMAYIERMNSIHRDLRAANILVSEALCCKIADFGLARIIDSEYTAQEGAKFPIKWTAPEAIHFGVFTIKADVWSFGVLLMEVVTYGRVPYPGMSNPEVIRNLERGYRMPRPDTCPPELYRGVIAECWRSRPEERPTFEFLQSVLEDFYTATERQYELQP

With COc1ccc(/C=C2\SC(NCc3ccccc3)=NC2=O)cc1 the AC50 [1] was 6020 nM (active).
With Fc1ccc(/C=C/c2nc(-c3ccccc3)no2)cc1 the IC50 (Caspase-3 [2]) was 5000 nM (active), the IC50 [3] was 2100 nM (active) and the IC50 [4] was 1830 nM (active). The IC50 [5] was 2090 nM (active), the IC50 (Caspase-3 [6]) was 3020 nM (active) and the IC50 [7] was 16000 nM (active). For the same compound, the IC50 [8] was 1700 nM (active) and the IC50 [9] was 1810 nM (active).
With COc1cccc(NC(=O)CSc2nc3ccccc3c(=O)[nH]2)c1 the CC50 [10] was > 100000 nM (active), the CC50 [11] was > 100000 nM (active) and the CC50 [12] was > 100000 nM (active). The CC50 [13] was > 100000 nM (active).
In the case of Cc1ccc(N2C(=O)C(=O)N(CC(=O)c3ccc[nH]3)C2=O)c(C)c1, the IC50 [14] is reported as > 99000 nM (inactive) and the IC50 [15] is reported as > 99000 nM (inactive).
With Cc1cc(C)cc(NC(=O)Nc2ccc(-c3ccnc4c3c(N)nn4C)cc2)c1 the Ki [16] was > 631 nM (inactive), the Ki [17] was 2 nM (active) and the Ki [18] was 1 nM (active). For the same compound, the Ki [19] was 794 nM (active).
With N#CC(c1cccc(Cl)c1)c1c(Cl)cnn(Cc2cccc3ccccc23)c1=O (stereo not drawn) the IC50 [20] was 260 nM (active) and the IC50 [21] was 260 nM (active).
For CC(Cc1ccccc1Sc1ccccc1O)N(C)C (stereo not drawn), the EC50 [22] was 944 nM (active) and the AC50 [23] was 15900 nM (active).
